From ChEMBL document CHEMBL1133774, “'3+1' mixed-ligand oxotechnetium(V) complexes with affinity for melanoma: synthesis and evaluation in vitro and in vivo” (J Med Chem, 2000) come the findings set out here.

A short description of data set [1]: Biodistribution after 6 hours of postinjection in brain. Format: ADME, organism-based. The settings on record: in vivo.
The nature of data set [2]: Partition coefficient (logD7.4). Format: physicochemical. The settings on record: octanol/water, pH 7.4.
The nature of data set [3]: Biodistribution after 1 hour of postinjection in spleen. The format is ADME, organism-based. The conditions noted are these: in vivo.
A short description of data set [4]: Biodistribution after 1 hour of postinjection in blood. Format: ADME, organism-based. The conditions noted are these: in vivo.
Data set [5] in a line: Biodistribution after 1 hour of postinjection in melanoma/blood. The format is ADME, organism-based. The settings on record: in vivo.
The nature of data set [6]: Biodistribution after 6 hours of postinjection in liver. The format is ADME, organism-based. The conditions noted are these: in vivo.
Data set [7] is described as follows: Biodistribution after 6 hours of postinjection in heart. Format: ADME, organism-based. The settings on record: in vivo.
A short description of data set [8]: Biodistribution after 1 hour of postinjection in lungs. The format is ADME, organism-based, Lung. The settings on record: in vivo.
A short description of data set [9]: Biodistribution after 6 hours of postinjection in melanoma/blood. The settings on record: in vivo. The format is ADME, organism-based.
The nature of data set [10]: Biodistribution after 1 hour of postinjection in heart. The format is ADME, organism-based. The conditions noted are these: in vivo.
Data set [11] is described as follows: Biodistribution after 6 hours of postinjection in spleen. The format is ADME, organism-based. The settings on record: in vivo.
Data set [12] in a line: Biodistribution after 6 hours of postinjection in melanoma/spleen. Format: ADME, organism-based. The conditions noted are these: in vivo.
Data set [13] can be described thus: Biodistribution after 1 hour of postinjection in melanoma. Format: ADME, organism-based. The conditions noted are these: in vivo.
The nature of data set [14]: Biodistribution after 6 hours of postinjection in lungs. Format: ADME, organism-based, Lung. The settings on record: in vivo.
Data set [15] in a line: Biodistribution after 1 hour of postinjection in liver. Format: ADME, organism-based. The conditions noted are these: in vivo.
A short description of data set [16]: Biodistribution after 6 hours of postinjection in melanoma. Format: ADME, organism-based. The settings on record: in vivo.
Data set [17] in a line: Biodistribution after 6 hours of postinjection in melanoma/lungs. The settings on record: in vivo. Format: ADME, organism-based, Lung.
The nature of data set [18]: Biodistribution after 1 hour of postinjection in melanoma/lungs. The format is ADME, organism-based, Lung. The settings on record: in vivo.
The nature of data set [19]: Biodistribution after 1 hour of postinjection in kidney. The conditions noted are these: in vivo. The format is ADME, organism-based.
The nature of data set [20]: Biodistribution after 6 hours of postinjection in kidney. The format is ADME, organism-based. The conditions noted are these: in vivo.
Data set [21] in a line: Biodistribution after 1 hour of postinjection in brain. The conditions noted are these: in vivo. Format: ADME, organism-based.
Data set [22] can be described thus: Partition coefficient of the unprotonated free amine (logP). Format: physicochemical. The settings on record: octanol/water.
Data set [23] can be described thus: aqueous ionization constant (pKa) determined by HPLC methods. Format: physicochemical. The settings on record: buffer.
The nature of data set [24]: Biodistribution after 6 hours of postinjection in muscle. Format: ADME, organism-based, Muscle tissue. The settings on record: in vivo.
Data set [25] can be described thus: Biodistribution after 6 hours of postinjection in blood. The settings on record: in vivo. The format is ADME, organism-based.
A short description of data set [26]: Biodistribution after 1 hour of postinjection in muscle. The conditions noted are these: in vivo. The format is ADME, organism-based, Muscle tissue.
The nature of data set [27]: Biodistribution after 1 hour of postinjection in melanoma/spleen. Format: ADME, organism-based. The settings on record: in vivo.
Data set [28] can be described thus: Biodistribution after 6 hours of postinjection in melanoma/liver. Format: ADME, organism-based. The conditions noted are these: in vivo.
A short description of data set [29]: Biodistribution after 1 hour of postinjection in melanoma/liver. The settings on record: in vivo. The format is ADME, organism-based.

The logP is the decadic logarithm of the partition coefficient of the neutral form, usually between octanol and water. The low end stands for a more hydrophilic compound, the high end for a more lipophilic compound. Usually pKa stands for the pH at which an ionisable group is half protonated. High values mean a weaker acid or stronger base, low ones a stronger acid or weaker base. Regarding “N-methyl-3-azapentane-1,5-dithiol complex [listing 1 of 6 here]”, the ID/g came out at 0.26% in [1]; 5.57% in data set [3]; 2.36% in data set [4]; 1.53% in data set [6]; 0.83% in data set [7]; 5.75% in data set [8]. The ID/g in data set [10] is on record as 1.26%; in data set [11] it was 2.91%; in [13], 2.16%; in data set [14], 2.91%; in data set [15], 4.02%; in data set [16] it was 1.53%. Also, the ID/g in data set [19] is reported as 19.4%; in [20] it was 11.3%; in [21], 0.64%. The same substance showed a logD in [2] of 1 pH7.4. Moreover, the Ratio in [5] is less than 1; in data set [9] it was 1.1; in [12], 1; in data set [17], less than 1; in [18], less than 1. In data set [22], this substance displayed a lipophilicity (logP) of 1.2. The substance also showed a pKa in data set [23] of 7.2.

With “N-methyl-3-azapentane-1,5-dithiol complex [listing 2 of 6 here]”, the ID/g in data set [3] was determined as 1.15%; in data set [4], 1.26%; in data set [6], 23%; in data set [7] it was 0.46%; in data set [8], 2.6%; in [10], 0.66%. For the same substance, the ID/g worked out at 1.3% in data set [11]; 0.2% in [24]; 4.95% in data set [13]; 0.98% in data set [25]; 1.35% in data set [14]; 0.24% in data set [26]. The ID/g amounted to 43.3% in [15]; 4.12% in data set [16]; 30.4% in data set [19]; 19.3% in data set [20]; 0.08% in [21]. In addition, the Ratio is reported as 3.9 in [5]; 4.2 in [9]; 3.2 in data set [12]; 3.1 in data set [17]; 4.3 in data set [27]; 1.9 in data set [18]. The substance also returned a logP in data set [22] of 3.5.

In the case of “N-methyl-3-azapentane-1,5-dithiol complex [listing 3 of 6 here]”, the ID/g in data set [1] worked out at 0.08%; in data set [3], 3.35%; in data set [4] it was 1.34%; in data set [6], 17.7%; in [7], 0.73%; in [8], 3.27%. Further, the ID/g in [10] amounted to 1.17%; in data set [11], 1.25%; in [24], 0.26%; in data set [13], 3.26%; in [25], 1.44%; in [14], 2.07%. For the same substance, the ID/g was 0.53% in data set [26]; 35.3% in [15]; 3.23% in [16]; 15.3% in data set [19]; 11.7% in data set [20]; 0.13% in data set [21]. Besides, the logD in data set [2] is recorded as 1.1 pH7.4. Also, the Ratio in data set [5] is recorded as 2.4; in [9], 2.2; in data set [12], 2.6; in [17], 1.6; in data set [27], less than 1; in [18] it was 1. Besides, the Ratio in data set [28] and in data set [29] was less than 1 each time. Moreover, in data set [22], the logP was found to be 3.7. Besides, the pKa in [23] amounted to 9.9.

On to “N-methyl-3-azapentane-1,5-dithiol complex [listing 4 of 6 here]”, for which the ID/g is given as 0.14% in data set [1]; 3.44% in data set [3]; 2.08% in data set [4]; 18.7% in data set [6]; 0.84% in [7]; 2.73% in [8]. Further, the ID/g worked out at 1.84% in [10]; 0.7% in data set [11]; 0.39% in [24]; 3.23% in data set [13]; 1.35% in data set [25]; 1.96% in [14]. In addition, the ID/g in data set [26] came to 0.57%; in data set [15], 27.3%; in data set [16] it was 3.13%; in [19], 17.9%; in data set [20], 17.9%; in data set [21], 0.18%. In [2], this substance returned a logD of 0 pH7.4. Besides, the Ratio in [5] is listed as 1.6; in data set [9], 2.3; in data set [12], 4.5; in data set [17], 1.2; in data set [18] it was 4.5. Besides, the logP in data set [22] is 1.7. The pKa in data set [23] was found to be 9.7.

With “N-methyl-3-azapentane-1,5-dithiol complex [listing 5 of 6 here]”, the logD in data set [2] was 1.6 pH7.4. Besides, the ID/g in data set [3] amounted to 2.39%; in data set [4], 3.49%; in [6] it was 6.1%; in [7], 1.15%; in data set [8], 5.73%; in data set [10], 1.74%. The ID/g in data set [11] came to 1.66%; in data set [13], 2.55%; in [25], 2.05%; in data set [14], 3.4%; in data set [26], 0.78%; in data set [15] it was 7.11%. The ID/g is 2.83% in [16], 13% in data set [19], 10.1% in data set [20] and 0.24% in data set [21]. Also, the Ratio in [9] is reported as 1.4; in [12], 1.7; in [27], 1.1. The substance further gave a logP in data set [22] of 2.7. Further, in data set [23], the pKa is given as 8.3.

For “N-methyl-3-azapentane-1,5-dithiol complex [listing 6 of 6 here]”, the ID/g in data set [1] is on record as 0.13%; in [3] it was 6.04%; in [4] it was 3.28%; in data set [6] it was 7.23%; in data set [7] it was 0.86%; in [8] it was 13.2%. Also, the ID/g stood at 2.09% in data set [10]; 1.44% in data set [11]; 2.88% in data set [13]; 1.3% in data set [25]; 5.5% in data set [14]; 16.6% in data set [15]. In addition, the ID/g was 1.39% in data set [16], 24% in data set [19], 12.9% in data set [20] and 0.32% in data set [21]. Also, the logD in data set [2] is given as 0.95 pH7.4. In [12], the Ratio is given as less than 1. For the same substance, in data set [22], the logP is recorded as 3.6. The substance further returned a pKa in [23] of 9.6.
